Assay results from patent publication US20040018528A1, “Novel biomarkers of tyrosine kinase inhibitor exposure and activity in mammals” (Sugen, Inc., priority 2002, published 2004).
Where “and” joins values, the source holds several entries; their conditions need not be identical. Identical values can stand only once. Entries after “also recorded” stand apart in the source; their conditions may differ.

Legend:
VEGF/PLGF heterodimers = assay: Hybrid ELISA for VEGF/PLGF heterodimers in patient plasma; format: in vivo, human; details: Trial C
From the text: Heterodimers of VEGF and PLGF have been reported in the scientific literature. To measure heterodimers, a hybrid ELISA assay was used, combining reagents from both the R&D Systems VEGF and PLGF ELISA kits (where VEGF antibodies are used in capture step and PLGF antibodies are used in detection step).

MIG = MIG plasma ELISA, Compound 1 Phase I trials; format: in vivo, human; details: individual patients; in pg/mL (unit assumed)
Protocol: (§1) In Trials A and B, patients received Compound 1.
(§2) Data analysis was performed for each marker.

IP-10 = IP-10 plasma ELISA, Compound 1 Phase I trials; format: in vivo, human
Protocol: as §1, §2

I-TAC = I-TAC plasma ELISA, Compound 1 Phase I trials; format: in vivo, human
Protocol: as §1, §2

42 human cytokines = assay: Antibody membrane array (RayBio Human Cytokine Array III) screen of patient plasma; format: in vivo; details: plasma of one Trial B patient, confirmed by MIG ELISA
Protocol: All of the ELISA-based screening of candidate proteins were performed with commercially available ELISA kits; the kits for the biomarkers described in this report are all available from R&D Systems (Minneapolis, Minn.). A commercially available membrane array containing antibodies for the detection of 42 human cytokines was also used in screening of a patient's plasma samples before and after treatment. The antibody array used in cytokine screening (RayBio Human Cytokine Array III) was from RayBiotech (Norcross, Ga.).

HUVECs = assay: 2D gel analysis of conditioned media of VEGF-stimulated HUVECs; format: cell-based, human; details: HUVEC conditioned media; VEGF and compound 1 (1 uM) at 24 h; Run #1, Run #2
Protocol: Thawed conditioned media samples were precipitated with three volumes of acetone for 2 hours at −20° C., then centrifuged at 13000 RPM for 15 minutes. […] Protein was quantitated with Bio-Rad Protein Assay (cat#500-0006) using the microassay for cuvettes protocol.
Samples were diluted to 0.3 μg/μl with IEF Buffer containing 1% IPG Buffer pH 3-10 (Amersham). Eighteen centimeter IPG strips pH 3-10 (Amersham) were rehydrated with 120 μg sample (400 μL) under Drystrip Cover Fluid (Amersham) on the IPGphor (Amersham) at 20° C. for 18 hours. Strips were focused with the following program: 200 volts for 1 hour, ramped from 200 volts to 1000 volts over two hours, held at 1000 volts for 1 hour, ramped from 1000 volts to 8000 volts over 6 hours, then held at 8000 volts for 10 hours. […] Gels were over-layed with water-saturated butanol (Fisher), and left to polymerize at room temperature overnight.
Focused strips were equilibrated for ten minutes with gentle shaking in 10 milliliters Equilibration Buffer: 6 M Urea (Fisher), 50 mM tris-HCl pH 8.8 (Fisher), 30% glycerol (Fisher), 2% SDS (Fisher) with 1% dithiothreitol followed by ten minutes in Equilibration Buffer with 4% iodoacetamide.
The equilibrated strips were loaded onto the gel surfaces and sealed with hot agarose overlay solution containing 0.5% agarose in 50 mM tris-HCl pH 6.8, 2% SDS. […]

HUVEC = assay: pro-MMP1 ELISA of HUVEC conditioned media; format: cell-based, human; details: for Average pro-MMP1: HUVEC conditioned media
Protocol: Cells were propagated at 37° C. in a humidifed atmosphere of 5% CO2 using standard cell culture techniques. Cells were plated in 10-cm tissue culture plates at 8.5×10^5 cells/ml. After 6 hours the cells were quiesced by serum starvation overnight in starvation medium (EBM containing 0.5% FBS). […] Conditioned media was stored at −70° C. until subsequent analysis.
Reagents for human pro-Matrix Metalloproteinase 1 (pro-MMP-1) ELISA kits were obtained from R&D Systems, Inc. (Minneapolis, Minn.; catalog #DMP100). ELISAs were performed on conditioned media samples according to the manufacturers' instructions. The optical density of each well was determined using a universal microplate spectrophotometer (μQuant) from Bio-Tek Instruments, Inc. (Winooski, Vt.). KC-4 software from Bio-Tek Instruments, Inc. was used to extrapolate cytokine concentrations from the standard curves.

pro-MMP1 = pro-MMP1 levels in plasma of Study B patients; format: in vivo, human; details: Study B patients after receiving compound
FLT3 ligand (FL) = assay: FLT3 ligand plasma ELISA; format: in vivo, human
Protocol: Reagents for FLT3 ligand (FL) and IL-6 ELISA kits were obtained from R&D Systems, Inc. (Minneapolis, Minn.; catalog #s DFK00, Q6000). […] ELISAs were performed on patient plasma according to the manufacturers' instructions. The FL and CRP kits relied on a colorimetric readout; the optical density of each well was determined using a microplate spectrophotometer and data was analyzed using KC-4 software from Bio-Tek Instruments, Inc. The IL-6 kit was a chemiluminescent sandwich ELISA; luminescence values were determined on a microplate luminometer. SOFTmaxPRO software was used to extrapolate cytokine concentrations from the standard curves.

IL-6 = IL-6 plasma ELISA; format: in vivo, human; details: patients, FIG. 26
Protocol: (§3) Reagents for FLT3 ligand (FL) and IL-6 ELISA kits were obtained from R&D Systems, Inc. (Minneapolis, Minn.; catalog #s DFK00, Q6000). C-reactive protein (CRP) (accession ID AAA 52075) ELISA kits were obtained from KMI Diagnostics (Minneapolis, Minn.; catalog #EU59131). ELISAs were performed on patient plasma according to the manufacturers' instructions. The FL and CRP kits relied on a colorimetric readout; the optical density of each well was determined using a microplate spectrophotometer and data was analyzed using KC-4 software from Bio-Tek Instruments, Inc. The IL-6 kit was a chemiluminescent sandwich ELISA; luminescence values were determined on a microplate luminometer. SOFTmaxPRO software was used to extrapolate cytokine concentrations from the standard curves.

C-reactive protein (CRP) = assay: C-reactive protein plasma ELISA; format: in vivo, human; details: patients, FIG. 27
Protocol: as §3

[1] = system: OB-cadherin 1 (cadherin 11); assay: Immunohistochemistry of OB-cadherin 1 in Colo205 xenograft tumors; format: in vivo, mice; details: 24 or 48 hours exposure, vs vehicle treated, IHC
From the text: Colo205 human colon xenograft tumors were isolated and fixed in Streck Tissue Fixative (Streck Laboratories, Inc., La Vista, […].). Samples used in immunohistochemistry were sent out to BioPathology Sciences Medical Corporation (South San Francisco, Calif.) for paraffin embedding and sectioning.
A rabbit polyclonal antibody recognizing the cytoplasmic tail region of OB-cadherin 1 (cadherin 11) was purchased from Zymed Laboratories, Inc. (Zymed reagent #71-7600; South San Francisco, Calif.).
Sections (4-5 μm) stained using an automated immunohistochemistry system (Benchmark System, Ventana Medical Systems, Inc., Tucson, Ariz.). In brief, slides were deparaffinized using heat at 75° C. and Ventana's EZ Prep product (Ventana reagent #950-102). Antigen retrieval was performed by incubating the slides for 30 min with Ventana's CC2 product (Ventana reagent #950-123), a citrate-based solution with pH 6.0. Primary antibody (5 μg/ml) was incubated for 24 min at room temperature, followed by a secondary detection system, using biotinylated secondary antibody (Vector anti-rabbit secondary, BA-1000, at 2.5 μg/ml; Vector Laboratories, Burlingame, Calif.) with incubation time of 8 min. […] All samples analyzed for OB-cadherin 1 expression were also stained with the omission of primary antibody as a negative control.

[2] = patients checked for both proteins

CCN(CC)CCNC(=O)c1c(C)[nH]c(C=C2C(=O)Nc3ccc(F)cc32)c1C [Compound 1, 5-(5-Fluoro-2-oxo-1,2-dihydro-indol-3-ylidenemethyl)-2,4-dimethyl-1H-pyrrole-3-carboxylic acid (2-diethylamino-ethyl)-amide]
patients tested with increase in plasma levels of VEGF/PLGF heterodimer (VEGF/PLGF heterodimers): 3 of 3
MIG plasma level, end C1 dosing (MIG): 138.56 and 739.71
IP-10 plasma level, end C1 dosing (IP-10; individual patients, >500 = above highest standard): >500
patients with MIG and IP-10 induced in tandem (IP-10; [2]): 6 of 6
I-TAC plasma level, end C1 dosing (I-TAC; individual patients, in pg/mL (unit assumed)): >4000.0 and 212.26
patients with MIG and I-TAC induced in tandem (I-TAC; [2]): 5 of 5
level of MIG after treatment vs baseline (42 human cytokines): significantly higher
Spot #1202 (pro-MMP-1) quantification, 2D gel (HUVECs): 270 and 484.7
Average pro-MMP1 (HUVEC; 10 nM pre-treatment, 10 min post-VEGF): 5.41 ng/mL
Average pro-MMP1 (HUVEC; 10 nM pre-treatment, 8 hr post-VEGF): 14.93 ng/mL
Average pro-MMP1 (HUVEC; 10 nM pre-treatment, 24 hr post-VEGF): 70.21 ng/mL
Average pro-MMP1 (HUVEC; 10 nM pre-treatment, 48 hr post-VEGF): 135.35 ng/mL
Average pro-MMP1 (HUVEC; 100 nM pre-treatment, 10 min post-VEGF): 5.78 ng/mL
Average pro-MMP1 (HUVEC; 100 nM pre-treatment, 8 hr post-VEGF): 12.75 ng/mL
Average pro-MMP1 (HUVEC; 100 nM pre-treatment, 24 hr post-VEGF): 50.26 ng/mL
Average pro-MMP1 (HUVEC; 100 nM pre-treatment, 48 hr post-VEGF): 128.75 ng/mL
Average pro-MMP1 (HUVEC; 1 uM pre-treatment, 10 min post-VEGF): 5.04 ng/mL
Average pro-MMP1 (HUVEC; 1 uM pre-treatment, 8 hr post-VEGF): 14.48 ng/mL
Average pro-MMP1 (HUVEC; 1 uM pre-treatment, 24 hr post-VEGF): 50.42 ng/mL
Average pro-MMP1 (HUVEC; 1 uM pre-treatment, 48 hr post-VEGF): 103.09 ng/mL
levels of pro-MMP1 in HUVEC conditioned media (HUVEC; VEGF-treated HUVEC, pre-incubation at 10 nM, 100 nM or 1 uM): decreased
pro-MMP1 levels in plasma of patients (pro-MMP1): increased
patients exhibiting an increase in FLT3 ligand (FL) concentration (FLT3 ligand (FL); 18 patients enrolled in Trial B, day 1 to day 28): 100%
FLT3 ligand (FL) plasma level during treatment (FLT3 ligand (FL); expanded set of patients, FIG. 25): induced; also recorded: Dramatic induction
interleukin-6 (IL-6) plasma level during treatment (IL-6): induced
C-reactive protein (CRP) plasma level during treatment (C-reactive protein (CRP)): induced
protein expression of OB-cadherin 1 (cadherin 11) [1]: up-regulated; also recorded: up-regulation
